Measurements taken from patent US8597688B2, “Pesticidal mixtures comprising isoxazoline compounds II” (BASF SE, priority 2008, dated 2013).
Like-named read-outs stand apart in the source and are kept apart here.

Columns and labels:
Assay type in all cases: cell-based
Septoria tritici = assay: Activity against leaf blotch on wheat caused by Septoria tritici (Septtr), microtiter test; conditions: day 7
Pyricularia oryzae = conditions: single active compound, Pyrior microtiter test
Botrytis cinerea = assay: Activity against the grey mold Botrytis cinerea in the microtiterplate test (Botrci); conditions: 7 days
Phytophthora infestans = conditions: day 7

CO/N=C(/C1=NOCCO1)c1ccccc1Oc1ncnc(Oc2ccccc2Cl)c1F [Fluoxastrobin, (E)-{2-[6-(2-chlorophenoxy)-5-fluoropyrimidin-4-yloxy]phenyl}(5,6-dihydro-1,4,2-dioxazin-3-yl)methanone O-methyloxime, reference compound]
Observed efficacy (Septoria tritici; 0.25 ppm): 68%

COC(=O)Nc1nc2ccccc2[nH]1 [Carbendazim]
Observed efficacy (Pyricularia oryzae; concentration 0.25 ppm): 18

CC1(C(=O)Nc2ccc(O)c(Cl)c2Cl)CCCCC1 [Fenhexamid, N-(2,3-dichloro-4-hydroxyphenyl)-1-methylcyclohexanecarboxamide, reference compound]
Observed efficacy (Botrytis cinerea; 0.016 ppm): 51%

CC(C)NC(=O)N1CC(=O)N(c2cc(Cl)cc(Cl)c2)C1=O [Iprodion]
Observed efficacy (Pyricularia oryzae; concentration 0.24 ppm): 4

CC(C)OC(=O)N[C@H](C(=O)N[C@H](C)c1nc2ccc(F)cc2s1)C(C)C [Fubenthiavalicarb (Benthivalicarb), isopropyl {(S)-1-[(1R)-1-(6-fluorobenzothiazol-2-yl)-ethylcarbamoyl]-2-methylpropyl}carbamate, reference compound]
Observed efficacy (Septoria tritici; 4 ppm): 0%

COC(=O)N(OC)c1ccccc1COc1ccn(-c2ccc(Cl)cc2)n1 [Pyraclostrobin, methyl N-{2-[1-(4-chlorophenyl)-1H-pyrazol-3-yloxymethyl]phenyl}(N-methoxy)carbamate, reference compound]
Observed efficacy (Phytophthora infestans; 0.016 ppm): 13% | Observed efficacy (Pyricularia oryzae; concentration 0.004 ppm): 26

Fc1ccc([C@]2(Cn3cncn3)O[C@H]2c2ccccc2Cl)cc1 [Epoxiconazol]
Observed efficacy (Pyricularia oryzae; concentration 0.063 ppm): 0

Cc1cc(C2=NOC(c3cc(Cl)cc(Cl)c3)(C(F)(F)F)C2)ccc1C(=O)NCC(=O)NCC(F)(F)F (stereo not drawn) [C.I.240]
Observed efficacy (Phytophthora infestans; 4 ppm): 6% | Observed efficacy (Phytophthora infestans; 16 ppm): 15% | Observed efficacy (Botrytis cinerea; 0.063 ppm): 0% | Observed efficacy (Botrytis cinerea; 16 ppm): 18% | Observed efficacy (Pyricularia oryzae; concentration 1 ppm): 0 | Observed efficacy (Pyricularia oryzae; concentration 4 ppm): 11 | Observed efficacy (Septoria tritici; 4 ppm): 0%

Mancozeb
Observed efficacy (Pyricularia oryzae; concentration 1 ppm): 36

O=C(CNC(=O)c1ccc(C2=NOC(c3cc(Cl)cc(Cl)c3)(C(F)(F)F)C2)c2ccccc12)NCC(F)(F)F (stereo not drawn) [C.I.402]
Observed efficacy (Pyricularia oryzae; concentration 1 ppm): 6 | Observed efficacy (Pyricularia oryzae; concentration 4 ppm): 35 | Observed efficacy (Septoria tritici; 4 ppm): 2% | Observed efficacy (Septoria tritici; 63 ppm): 0%

CO/C=C(/C(=O)OC)c1ccccc1COc1cccc(C(F)(F)F)n1 [Picoxystrobin]
Observed efficacy (Pyricularia oryzae; concentration 0.063 ppm): 60

CON=C(C(=O)OC)c1ccccc1CON=C(C)c1cccc(C(F)(F)F)c1 [Trifloxystrobin]
Observed efficacy (Pyricularia oryzae; concentration 0.063 ppm): 32

N#Cc1c(Cl)c(Cl)c(Cl)c(C#N)c1Cl [Chlorothalonil, 2,4,5,6-tetrachloroisophthalonitrile, reference compound]
Observed efficacy (Phytophthora infestans; 1 ppm): 53% | Observed efficacy (Botrytis cinerea; 1 ppm): 43%
